pEC50: −log10 of the molar value.
molecular target: T1, full-length human S1P1 (Homo sapiens, UniProt P21453); assay: GTPγS binding assay (scintillation proximity assay) with S1P1 membranes; type: biochemical; settings: S1P1 membrane from CHO-K1 Gαqi5 cells; GTPγ35S SPA, 60 minutes incubation
T1 construct: CHO-K1 Gαqi5 cells expression full-length human S1P1; expressed in transfected cells; host or cells: CHO-K1 Gαqi5 cells (membrane preparation)
Experimental: S1P1 membrane is prepared from CHO-K1 Gαqi5 cells expression full-length human S1P1. Scintillation proximity assay (SPA) is performed by incubating membranes, GTPγ^35S, and compounds at various concentrations for 60 minutes. Wheat germ agglutinin-coated SPA beads are added and incubated for 60 minutes before centrifugation and scintillation counting.

T1 sequence (P21453 whole entry): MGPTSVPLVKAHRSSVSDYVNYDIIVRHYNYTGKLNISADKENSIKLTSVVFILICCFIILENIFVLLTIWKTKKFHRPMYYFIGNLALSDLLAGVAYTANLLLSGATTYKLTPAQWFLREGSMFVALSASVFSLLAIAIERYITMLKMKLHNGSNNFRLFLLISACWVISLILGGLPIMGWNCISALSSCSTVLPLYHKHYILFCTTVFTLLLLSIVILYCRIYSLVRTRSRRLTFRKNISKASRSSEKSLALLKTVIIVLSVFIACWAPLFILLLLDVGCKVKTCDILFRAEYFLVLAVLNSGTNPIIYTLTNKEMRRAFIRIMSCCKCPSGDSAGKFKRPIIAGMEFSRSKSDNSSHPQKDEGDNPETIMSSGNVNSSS

| SMILES | pEC50 |
| --- | --- |
| N[C@@H](CO)COc1cc(Cl)c(-c2noc(-c3cn4cc(C(F)(F)F)ncc4n3)n2)cc1Cl [Compound 24, (S)-2-amino-3-(2,5-dichloro-4-(5-(6-(trifluoromethyl)imidazo[1,2-a]pyrazin-2-yl)-1,2,4-oxadiazol-3-yl)phenoxy)propan-1-ol] | > 7.00 |
| CC(CO)Oc1cc(Cl)c(-c2noc(-c3cn4nc(C(F)(F)F)ccc4n3)n2)cc1Cl (stereo not shown) [Compound 21, 2-(2,5-dichloro-4-(5-(6-(trifluoromethyl)imidazo[1,2-b]pyridazin-2-yl)-1,2,4-oxadiazol-3-yl)phenoxy)propan-1-ol] | 6.00 to 7.00 |
| OC[C@H](O)COc1cc(Cl)c(-c2noc(-c3cn4nc(C(F)(F)F)ccc4n3)n2)cc1Cl [Compound 22, (S)-3-(2,5-dichloro-4-(5-(6-(trifluoromethyl)imidazo[1,2-b]pyridazin-2-yl)-1,2,4-oxadiazol-3-yl)phenoxy)propane-1,2-diol] | 6.00 to 7.00 |
| N[C@@H](CO)COc1cc(Cl)c(-c2noc(-c3cn4nc(C(F)(F)F)ccc4n3)n2)cc1Cl [Compound 19, (S)-2-amino-3-(2,5-dichloro-4-(5-(6-(trifluoromethyl)imidazo[1,2-b]pyridazin-2-yl)-1,2,4-oxadiazol-3-yl)phenoxy)propan-1-ol] | > 7.00 |
| OC[C@@H](O)COc1cc(Cl)c(-c2noc(-c3cn4cc(C(F)(F)F)ncc4n3)n2)cc1Cl [Compound 9, (R)-3-(2,5-dichloro-4-(5-(6-(trifluoromethyl)imidazo[1,2-a]pyrazin-2-yl)-1,2,4-oxadiazol-3-yl)phenoxy)propane-1,2-diol] | > 7.00 |
| OC[C@H](O)COc1cc(Cl)c(-c2noc(-c3cn4cc(C(F)(F)F)ncc4n3)n2)cc1Cl [Compound 8, (S)-3-(2,5-dichloro-4-(5-(6-(trifluoromethyl)imidazo[1,2-a]pyrazin-2-yl)-1,2,4-oxadiazol-3-yl)phenoxy)propane-1,2-diol] | > 7.00 |
| CC(CO)Oc1cc(Cl)c(-c2noc(-c3cn4cc(C(F)(F)F)ncc4n3)n2)cc1Cl (stereo not shown) [Compound 7, 2-(2,5-dichloro-4-(5-(6-(trifluoromethyl)imidazo[1,2-a]pyrazin-2-yl)-1,2,4-oxadiazol-3-yl)phenoxy)propan-1-ol] | > 7.00 |

Source: US20210163485A1, “Heterocyclic Compounds for the Treatment of Disease” (Oppilan Pharma Ltd., priority 2017, published 2021)
